Data reported in patent publication US10392389B2, “Heterocyclic compounds for the inhibition of PASK” (BioEnergenix, LLC, priority 2012, dated 2019).

Columns and labels:
[1] = target: T1, PASK (UniProt #Q96RG2; human recombinant N-terminal GST tagged construct, residues 879-1323) (Homo sapiens, UniProt Q96RG2); experiment: PASK ATP Radiochemical Assay; assay type: biochemical; details: 33P-ATP, Myelin Basic Protein substrate, read-out: IC50 Kinase Domain
T1 construct: N-terminal GST tagged construct, residues 879-1323; GST (N); host or cells: insect cells
T1 sequence (Q96RG2 879-1323, stated change not applied): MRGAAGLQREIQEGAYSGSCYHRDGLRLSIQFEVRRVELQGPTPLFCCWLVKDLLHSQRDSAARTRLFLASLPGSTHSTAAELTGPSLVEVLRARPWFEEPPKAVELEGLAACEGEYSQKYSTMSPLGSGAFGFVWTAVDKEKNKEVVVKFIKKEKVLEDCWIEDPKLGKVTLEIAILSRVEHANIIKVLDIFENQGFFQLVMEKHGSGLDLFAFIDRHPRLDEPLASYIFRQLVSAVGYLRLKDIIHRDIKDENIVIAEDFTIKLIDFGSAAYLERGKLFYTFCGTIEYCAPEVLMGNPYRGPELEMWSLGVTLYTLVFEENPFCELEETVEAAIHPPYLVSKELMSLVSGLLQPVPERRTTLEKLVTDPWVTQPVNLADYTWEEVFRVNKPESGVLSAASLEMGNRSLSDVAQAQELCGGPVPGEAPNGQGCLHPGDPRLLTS
Description: (§1) Biochemical Assay for hPASK Activity
PASK ATP Radiochemical Assay
(§2) Purified PASK (UniProt #Q96RG2; human recombinant N-terminal GST tagged construct, residues 879-1323) from insect cells (final concentration 5 nM) is added to freshly prepared Base Reaction Buffer containing 20 mM HEPES (pH 7.5), 10 mM MgCl2, 1 mM EGTA, 0.02% Brij35, 0.02 mg/ml BSA, 0.1 mM Na3VO4, 2 mM DTT, 1% DMSO and Myelin Basic Protein (20 μM final). Test compounds in DMSO are then added and the mixture, followed by delivery of ^33P-ATP (specific activity 0.01 μCi/μl final) to initiate the reaction. The kinase reaction is incubated for 120 min at room temperature. The entire reaction mixture is washed through onto a P81 Phosphocellulose paper and washed three times for 10 minutes in 75 mM phosphoric acid and once in methanol prior to drying and scintillation counting.

[2] = target: T2, PASK (Invitrogen) (Homo sapiens, UniProt Q96RG2); experiment: PAS Kinase FRET Assay; assay type: biochemical; details: PAS kinase TR-FRET assay (665 nm/615 nm); read-out: IC50 Kinase Domain
T2 construct: IC50 Kinase Domain; purchased Invitrogen
T2 sequence (Q96RG2 999-1251 limits assumed): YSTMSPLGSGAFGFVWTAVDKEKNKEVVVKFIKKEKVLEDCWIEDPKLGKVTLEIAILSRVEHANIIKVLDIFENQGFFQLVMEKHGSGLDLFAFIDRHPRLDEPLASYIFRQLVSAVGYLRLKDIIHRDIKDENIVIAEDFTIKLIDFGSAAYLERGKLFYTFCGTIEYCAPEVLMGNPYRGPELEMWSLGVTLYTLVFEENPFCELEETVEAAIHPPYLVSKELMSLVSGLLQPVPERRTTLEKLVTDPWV
Description: as §1
The aim of the FRET assay is to determine the inhibition potential of test compounds on targeted kinase. This assay platform provides a homogenous screening method for measuring kinase activity by quantitating the amount of phospho-substrate in solution following a kinase reaction.
In the presence of kinase and ATP, the Ulight-peptide is phosphorylated and captured by an anti-phospho-substrate antibody, which brings the Eu chelate donor and Ulight acceptor dyes into close proximity. Upon excitation at 340 nm, the Eu chelate transfers its energy to the Ulight dye, resulting in a fluorescent light emission at 665 nm.
Titration of kinase at 1 mM ATP was achieved via the following protocol. After making serial three-fold dilutions of PASK (Invitrogen) in reaction buffer across the plate; 5 μl of kinase dilution and 5 μl substrate/ATP mix were added to the wells of the white Optiplate-384 (PerkinElmer). The contents of the plate were and incubated at RT for 1 h. The reaction was stopped by adding 5 μl of stop solution to each test well followed by mixing and incubation at RT for 10 minutes. 5 μl of detection mix (detection antibody diluted in detection buffer) was added; the contents of the plate were mixed and then incubated in the dark for 1 hour at RT. The signal was recorded at TR-FRET mode (665 nm/615 nm). The results were graphed to calculate the EC50.
Titration of ATP at the EC50 concentration of kinase to determine ATP Km,app. was performed using the following method. After making serial dilutions of ATP (Invitrogen), 5 μl of ATP dilution and 5 μl substrate/kinase mix were added to the wells of the white Optiplate-384 (PerkinElmer). The contents of the plate were and incubated at RT for 1 h. The reaction was stopped by adding 5 μl of stop solution to each test well followed by mixing and incubation at RT for 10 minutes. 5 μl of detection mix (detection antibody diluted in detection buffer) was added; the contents of the plate were mixed and then incubated in the dark for 1 hour at RT. The signal was recorded at TR-FRET mode (665 nm/615 nm). The results were graphed to calculate the EC50 as the ATP Km,app.
Compound screening was done via the following method. 10 mM stock solution of test compound in DMSO was prepared by dissolving test compound in DMSO at RT for 1 hour, and then sonicating at 100% output for 8 minutes. If compound is not soluble under this condition, it was diluted to 3 mM. Kinase reaction buffer was prepared containing 10 mM MgCl2, 50 mM HEPES, 1 mM EGTA, 0.01% TWEEN-20, 2 mM DTT. Serial dilutions of the test compounds were prepared at 4× final assay concentrations using Freedom EVO200® dispensing system as follows: 12×10^−5 M, 4×10^−5 M, 1.33×10^−5 M, 4.44×10^−6 M, 1.48×10^−6 M, 4.92×10^−7 M, 1.65×10^−7 M, […], 1.82×10^−8M, 6.09×10^−9, 2.03×10^−9 M. Test compounds (2.5 μl at 4× the final assay concentration) was added to wells using Freedom EVO200® dispensing system. As a positive control, 2.5 μl of positive compound was added to assay wells, and 2.5 μl of DMSO to assay wells as vehicle control. Kinase solution was prepared in reaction buffer at 2× final assay concentration. Kinase solution (5 μl) was added to each well of the assay plate. The substrate and ATP solution was prepared in kinase reaction buffer at 4× final assay concentration. The kinase reaction was started by adding 2.5 μl of substrate+ATP mix solution to each well of the assay plate. The plate is mixed on a plate shaker; then covered and allowed to react for 2 hours in the dark at 25° C. without shaking. The reaction was stopped by adding 5 μl of stop solution to each test well followed by mixing and incubation at RT for 10 minutes in the dark. 5 μl of detection mix (detection antibody diluted in detection buffer) was added; the contents of the plate were mixed and then incubated in the dark for 1 hour at RT. The signal was recorded at TR-FRET mode (665 nm/615 nm).

[3] = target: T3, CK2a2 (NP_001887; human full-length protein, GST tagged) (Homo sapiens, UniProt P19784); experiment: Biochemical Assay for CK2 Activity; details: 33P-ATP radiochemical assay, CK2 sub [RRRDDDSDDD]
T3 construct: human full-length protein, GST tagged; GST; host or cells: insect cells
T3 sequence (P19784 whole entry): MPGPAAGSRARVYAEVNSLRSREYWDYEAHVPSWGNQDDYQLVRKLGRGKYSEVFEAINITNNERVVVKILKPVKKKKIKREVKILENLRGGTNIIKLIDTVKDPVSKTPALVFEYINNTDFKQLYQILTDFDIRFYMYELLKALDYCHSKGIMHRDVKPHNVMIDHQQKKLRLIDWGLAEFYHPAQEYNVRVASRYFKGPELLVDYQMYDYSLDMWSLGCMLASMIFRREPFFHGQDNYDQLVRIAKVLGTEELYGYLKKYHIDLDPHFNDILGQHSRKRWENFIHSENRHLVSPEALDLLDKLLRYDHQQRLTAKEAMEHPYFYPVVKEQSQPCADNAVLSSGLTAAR
Description: Biochemical Assay for CK2 Activity
as §2, with “Purified CK2a2 (NP_001887;” for “Purified PASK (UniProt #Q96RG2;”, “human full-length protein,” for “human recombinant N-terminal”, “GST tagged)” for “GST tagged construct, residues 879-1323)”, “concentration 1.2” for “concentration 5”, “mM Hepes” for “mM HEPES”, “and CK2 sub [RRRDDDSDDD]” for “and Myelin Basic Protein”

[4] = target: T4, PIM1 (NP_002639; human full-length protein, 6×His tagged) (Homo sapiens, UniProt P11309); experiment: Biochemical Assay for PIM1 Activity; details: 33P-ATP radiochemical assay, S6K/Rsk2 peptide 2 substrate
T4 construct: human full-length protein, 6×His tagged; 6xHis; host or cells: insect cells
T4 sequence (P11309 whole entry): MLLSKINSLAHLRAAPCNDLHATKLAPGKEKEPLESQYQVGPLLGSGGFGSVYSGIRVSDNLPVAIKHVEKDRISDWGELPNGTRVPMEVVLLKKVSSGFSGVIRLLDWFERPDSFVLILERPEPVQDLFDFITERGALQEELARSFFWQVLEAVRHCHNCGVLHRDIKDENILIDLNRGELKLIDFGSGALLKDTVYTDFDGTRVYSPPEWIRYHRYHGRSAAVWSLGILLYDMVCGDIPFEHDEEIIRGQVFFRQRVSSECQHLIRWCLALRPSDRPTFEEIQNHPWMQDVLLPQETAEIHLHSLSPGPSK
Description: Biochemical Assay for PIM1 Activity
as §2, with “Purified PIM1 (NP_002639;” for “Purified PASK (UniProt #Q96RG2;”, “human full-length protein, 6×His tagged)” for “human recombinant N-terminal GST tagged construct, residues 879-1323)”, “concentration 1.0” for “concentration 5”, “mM Hepes” for “mM HEPES”, “and substrate S6K/Rsk2 peptide 2 [KKRNRTLTK]” for “and Myelin Basic Protein”, “activity 10” for “activity 0.01”

Compound: O=c1cc(-c2ccc3c(c2)OCO3)[nH]c2c(-c3ncco3)cnn12 [Example 1, 5-(2H-1,3-benzodioxol-5-yl)-3-(1,3-oxazol-2-yl)-4H,7H-pyrazolo[1,5-a]pyrimidin-7-one]
- IC50 [1]: ≤ 10 µM
- IC50 [2]: ≤ 10 µM

Compound: Cc1nn2c(=O)cc(-c3ccc4c(c3)OCO4)[nH]c2c1-c1ncco1 [Example 2, 5-(2H-1,3-benzodioxol-5-yl)-2-methyl-3-(1,3-oxazol-2-yl)-4H,7H-pyrazolo[1,5-a]pyrimidin-7-one]
- IC50 [1]: ≤ 10 µM
- IC50 [2]: ≤ 10 µM
- IC50 [3]: ≤ 10 µM
- IC50 [4]: ≤ 10 µM

Compound: Cc1cnc(-c2cnn3c(=O)cc(-c4ccc5c(c4)OCO5)[nH]c23)o1 [Example 3, 5-(2H-1,3-benzodioxol-5-yl)-3-(5-methyl-1,3-oxazol-2-yl)-4H,7H-pyrazolo[1,5-a]pyrimidin-7-one]
- IC50 [1]: ≤ 10 µM
- IC50 [2]: ≤ 10 µM
- IC50 [3]: ≤ 10 µM
- IC50 [4]: ≤ 10 µM

Compound: Cc1coc(-c2cnn3c(=O)cc(-c4ccc5c(c4)OCO5)[nH]c23)n1 [Example 4, 5-(2H-1,3-benzodioxol-5-yl)-3-(4-methyl-1,3-oxazol-2-yl)-4H,7H-pyrazolo[1,5-a]pyrimidin-7-one]
- IC50 [1]: ≤ 10 µM
- IC50 [2]: ≤ 10 µM
- IC50 [3]: ≤ 10 µM
- IC50 [4]: ≤ 10 µM

Compound: Cc1cnc(-c2cnn3c(=O)cc(-c4ccc5[nH]nnc5c4)[nH]c23)o1 [Example 5, 5-(1H-1,2,3-benzotriazol-5-yl)-3-(5-methyl-1,3-oxazol-2-yl)-4H,7H-pyrazolo[1,5-a]pyrimidin-7-one]
- IC50 [1]: ≤ 10 µM
- IC50 [2]: ≤ 10 µM
- IC50 [3]: ≤ 10 µM
- IC50 [4]: ≤ 10 µM

Compound: CCn1ncc2cc(-c3cc(=O)n4ncc(-c5nc(C)co5)c4[nH]3)ccc21 [Example 13, 5-(1-Ethyl-1H-indazol-5-yl)-3-(4-methyl-1,3-oxazol-2-yl)-4H,7H-pyrazolo[1,5-a]pyrimidin-7-one]
- IC50 [1]: ≤ 10 µM
- IC50 [2]: ≤ 10 µM
- IC50 [3]: ≤ 10 µM
- IC50 [4]: ≤ 10 µM

Compound: CCn1ncc2cc(-c3cc(=O)n4ncc(-c5cc(C)n[nH]5)c4[nH]3)ccc21 [Example 68, 5-(1-ethyl-1H-indazol-5-yl)-3-(3-methyl-1H-pyrazol-5-yl)pyrazolo[1,5-a]pyrimidin-7(4H)-one]
- IC50 [1]: ≤ 10 µM
- IC50 [3]: ≤ 10 µM
- IC50 [4]: ≤ 10 µM

Compound: CCc1nn2c(=O)cc(-c3ccc4c(cnn4CC)c3)[nH]c2c1-c1nc(C)no1 [Example 114, 2-ethyl-5-(1-ethyl-1H-indazol-5-yl)-3-(3-methyl-1,2,4-oxadiazol-5-yl)pyrazolo[1,5-a]pyrimidin-7(4H)-one]
- IC50 [2]: ≤ 10 µM

Compound: CCn1ncc2cc(-c3cc(=O)n4nc(C)c(-c5nc(C)no5)c4[nH]3)ccc21 [Example 115, 5-(1-ethyl-1H-indazol-5-yl)-2-methyl-3-(3-methyl-1,2,4-oxadiazol-5-yl)-4H,7H-pyrazolo[1,5-a]pyrimidin-7-one]
- IC50 [2]: ≤ 10 µM

Compound: CCCc1nn2c(=O)cc(-c3ccc4c(cnn4CC)c3)[nH]c2c1-c1nc(C)no1 [Example 116, 5-(1-ethyl-1H-indazol-5-yl)-3-(3-methyl-1,2,4-oxadiazol-5-yl)-2-propyl-4H,7H-pyrazolo[1,5-a]pyrimidin-7-one]
- IC50 [2]: ≤ 10 µM

Compound: CCc1nn2c(=O)cc(-c3ccc(Cl)c(OC)c3)[nH]c2c1-c1nc(C)no1 [Example 117, 5-(4-chloro-3-methoxyphenyl)-2-ethyl-3-(3-methyl-1,2,4-oxadiazol-5-yl)-4H,7H-pyrazolo[1,5-a]pyrimidin-7-one]
- IC50 [2]: ≤ 10 µM

Compound: Cc1noc2cc(-c3cc(=O)n4ncc(-c5ncco5)c4[nH]3)ccc12 [Example 118, 5-(3-methylbenzo[d]isoxazol-6-yl)-3-(oxazol-2-yl)pyrazolo[1,5-a]pyrimidin-7(4H)-one]
- IC50 [2]: ≤ 10 µM

Compound: Cc1cnc(-c2cnn3c(=O)cc(-c4ccc5c(C)noc5c4)[nH]c23)o1 [Example 119, 5-(3-Methylbenzo[d]isoxazol-6-yl)-3-(5-methyloxazol-2-yl)pyrazolo[1,5-a]pyrimidin-7(4H)-one]
- IC50 [2]: ≤ 10 µM

Compound: CCc1noc2cc(-c3cc(=O)n4ncc(-c5ncco5)c4[nH]3)ccc12 [Example 120, 5-(3-Ethylbenzo[d]isoxazol-6-yl)-3-(oxazol-2-yl)pyrazolo[1,5-a]pyrimidin-7(4H)-one]
- IC50 [2]: ≤ 10 µM

Compound: CCc1noc2cc(-c3cc(=O)n4ncc(-c5ncc(C)o5)c4[nH]3)ccc12 [Example 121, 5-(3-ethylbenzo[d]isoxazol-6-yl)-3-(5-methyloxazol-2-yl)pyrazolo[1,5-a]pyrimidin-7(4H)-one]
- IC50 [2]: ≤ 10 µM

Compound: Cc1noc2cc(-c3cc(=O)n4ncc(C(N)=O)c4[nH]3)ccc12 [Example 122, 5-(3-methylbenzo[d]isoxazol-6-yl)-7-oxo-4,7-dihydropyrazolo[1,5-a]pyrimidine-3-carboxamide]
- IC50 [2]: ≤ 10 µM

Compound: CCc1noc2cc(-c3cc(=O)n4ncc(C(N)=O)c4[nH]3)ccc12 [Example 123, 5-(3-ethylbenzo[d]isoxazol-6-yl)-7-oxo-4,7-dihydropyrazolo[1,5-a]pyrimidine-3-carboxamide]
- IC50 [2]: ≤ 10 µM
